From ChEMBL document CHEMBL1147618, “Crucial amides for dimerization inhibitors of HIV-1 protease” (Bioorg Med Chem Lett, 2004)

What was measured:
[1] = target: Human immunodeficiency virus type 1 protease (Human immunodeficiency virus 1) (UniProt Q72874); test: Relative loss of potency of compound in inhibiting Protease was determined
[2] = target: Human immunodeficiency virus type 1 protease (Human immunodeficiency virus 1, UniProt Q72874); test: Inhibitory concentration against Protease

Row | SMILES | Relative loss of potency [1] | IC50 [2] [µM]
1 | CC(C)C[C@H](NC(=O)[C@@H](NC(=O)CCCCCCCCCCCCCCC(=O)N[C@@H](C(N)=O)C(=O)N[C@H](Cc1ccccc1)C(=O)O)[C@H](C)O)C(=O)N(C)[C@@H](Cc1ccccc1)C(N)=O | 2.2 | 13
2 | CC(C)C[C@@H](C(=O)N[C@@H](Cc1ccccc1)C(N)=O)N(C)C(=O)[C@@H](NC(=O)CCCCCCCCCCCCCCC(=O)N[C@@H](C(N)=O)C(=O)N[C@H](Cc1ccccc1)C(=O)O)[C@H](C)O | 1.4 | 8
3 | CC(C)C[C@H](NC(=O)[C@@H](NC(=O)CCCCCCCCCCCCCCC(=O)N[C@@H](C(N)=O)C(=O)N[C@H](Cc1ccccc1)C(=O)O)[C@H](C)O)C(=O)N[C@@H](Cc1ccccc1)C(N)=O | 1 | 5.9
4 | CC(C)C[C@H](NC(=O)[C@@H](NC(=O)CCCCCCCCCCCCCCC(=O)N[C@@H](C(N)=O)C(=O)N(C)[C@H](Cc1ccccc1)C(=O)O)[C@H](C)O)C(=O)N[C@@H](Cc1ccccc1)C(N)=O | 1.6 | 9.6
5 | CC(C)C[C@H](NC(=O)[C@@H](NC(=O)CCCCCCCCCCCCCCC(=O)N(C)[C@@H](C(N)=O)C(=O)N[C@H](Cc1ccccc1)C(=O)O)[C@H](C)O)C(=O)N[C@@H](Cc1ccccc1)C(N)=O |  | 4.5
6 | CC(C)C[C@H](NC(=O)[C@H]([C@H](C)O)N(C)C(=O)CCCCCCCCCCCCCCC(=O)N[C@@H](C(N)=O)C(=O)N[C@H](Cc1ccccc1)C(=O)O)C(=O)N[C@@H](Cc1ccccc1)C(N)=O | 1.4 | 8.3
7 | CC(C)C[C@H](NC(=O)[C@@H](NC(=O)CCCCCCCCCCCCCCC(=O)N[C@@H](C(N)=O)C(=O)N(C)[C@H](Cc1ccccc1)C(=O)O)[C@H](C)O)C(=O)NCCc1ccccc1 |  | 5.8
